What was measured:
Type in all cases: cell-based, mouse
Flk1+ MPCs [1] = assay: Immunofluorescence staining of differentiating Flk1+ MPCs (CD144, αSMA, PHH3)
Experimental: Cultured cells were fixed with 2% paraformaldehyde (PFA) and blocked with 5% goat (or donkey) serum in PBST (0.3% Triton X-100 in PBS) for 1 hr at room temperature (RT). The cells were incubated overnight at 4┌ C with the following primary antibodies: anti-mouse CD144 (clone 11D4.1, BD Pharmingen™), anti-mouse phospho-histone H3 (rabbit polyclonal, Upstate), anti-mouse cTnT (NeoMarkers), Cy3-conjugated anti-┌ SMA (clone 1A4, Sigma), and anti-mouse CD31 (clone 2H8, Chemicon). After washing in PBST 4 times, the cells were incubated for 2 hrs at RT with the following secondary antibodies: Cy3-conjugated anti-rabbit IgG (Jackson ImmunoResearch), Cy3-conjugated anti-hamster IgG (Jackson ImmunoResearch), Cy3-conjugated anti-mouse IgG antibody (Jackson ImmunoResearch) and FITC or Cy3-conjugated anti-rat (Jackson ImmunoResearch). F-actin and nuclei were stained with TRITC-phalloidin (Invitrogen) and 4′,6-diamidino-2-phenylindole (DAPI, Invitrogen), respectively. The cells were then mounted in fluorescent mounting medium (DAKO Corporation).

CD144+ ECs = assay: BrdU/7-AAD cell cycle analysis and BrdU incorporation in differentiating Flk1+ MPCs
Experimental: Apoptosis assay was performed as previously described. To determine the cell cycle, BrdU/7-AAD cell cycle analysis was performed according to the manufacturer's instructions (BD Pharmingen™). Briefly, cells were incubated with BrdU (1 mM) for 1 hr, dissociated with dissociation buffer, and stained with anti-CD144 antibody. The cells were then fixed, permeabilized, and fixed once more, followed by 1 hr incubation with DNase I (200 U) at 37┌ C. After incubation with FITC-conjugated anti-BrdU antibody for 20 min at RT, the cells were stained with 7-AAD. The cells were analyzed by FACS Aria II and the data were analyzed using FlowJo software.

Flk1+ MPCs [2] = assay: CM differentiation from Flk1+ MPCs in OP9 co-culture system
Experimental: EMG7 mouse ESCs which have ┌-myosin heavy chain (MHC) promoter driven enhanced green fluorescent protein (GFP) gene and OP9 cells were a generous gift from Dr. Jun K. Yamashita (Kyoto University). EMG7 ESCs were plated on a 0.1% gelatin coated 60p dish and maintained in a medium (GMEM, Invitrogen) containing 10% knockout serum, 2-mercaptoethanol (Invitrogen), sodium pyruvate (Invitrogen), non-essential amino acid and antibiotics (Invitrogen). leukemia inhibitory factor (LIF), Blasticidin (Invitrogen) and G418 (Invitrogen) were added in the medium at the time of the medium change. OP9 cells were maintained in a medium (alpha MEM, Invitrogen) containing 20% of fetal bovine serum (FBS), 2-mercaptoethanol (Invitrogen), L-glutamine (Invitrogen) and antibiotics (Invitrogen). The medium was changed every 2 days for both EMG7 ESCs and OP9 cells. For induction of Flk1+MPCs, EMG7 ESCs were cultured and plated on a 0.1% gelatin coated 100 p dish in the differentiation medium (alpha MEM, Invitrogen) with contained 10% FBS, 2-mercaptoethanol (Invitrogen), L-glutamine (Invitrogen) and antibiotics (Invitrogen) for 4.5 days (96-112 hours). The medium was changed every 2 days. At 4.5 days, differentiated EMG7 ESCs were harvested with 0.025% trypsin-EDTA and antigen recovery was performed in the differentiation medium for 30 minutes in an incubator. Then, cells were washed using phosphate buffered saline/10% FBS and attached with biotin-conjugated anti-mouse Flk1+ antibody (eBioscience) and […] MicroBeads (Miltenyi Biotec). Flk1+ MPCs were sorted by AutoMACS Pro Separator (Miltenyi Biotec). Sorted Flk1+ MPCs were plated onto the mitomycin-C (MMC) (Ag scientific) treated confluent OP9 cells at a density of 1-2×10^4 cells/cm^2 and cultured in the differentiation medium. The medium was changed every 2 days. CsA (a gift from Novartis Pharma, Korea) was treated in sorted Flk1+ MPCs on OP9 cells. CsA was dissolved in dimethyl sulfoxide (DMSO) (Sigma) and diluted 2┌ g/mL in the differentiation medium at the time of medium change. 10┌ M of Y27632 (purchased from Calbiochem) were treated in sorted Flk1+MPCs on OP9 cells and sorted MHC GFP+CMs at the time of medium change. Analysis and sorting for CMs were performed at day 10.5. We harvested differentiated Flk1+ MPCs on OP9 cells with 0.25% trypsin-EDTA or dissociation buffer (Invitrogen). Cardiac troponin-T (cTnT)+ and ┌ smooth muscle actin (SMA)+ cells were analyzed after permeabilization using Cytofix/Cytoperm solution (BD Biosciences) for 15 min. After permeabilization, the cells were incubated for 30 min with anti-mouse cTnT (NeoMarkers) monoclonal antibody. […] Data were analyzed using FlowJo Version 7.5.4 software (TreeStar).

[3] = Y27632 10 μM plus CsA vs CsA only, day 10.5

C[C@@H](N)[C@H]1CC[C@H](C(=O)Nc2ccncc2)CC1 [Y27632]
population of PHH3+/CD144+ ECs compared to control (Flk1+ MPCs [1]; 36 hrs, Y27632 10 μM plus VEGF-A): 3.7 fold | number of surrounding αSMA+MCs (Flk1+ MPCs [1]; day 6.5, Y27632 10 μM): decreased | size and number of CD144+ EC colonies (Flk1+ MPCs [1]; day 6.5, Y27632 10 μM): increased | increase of BrdU+/CD144+ EC population (CD144+ ECs; 12 hrs): 1.7 fold | increase of BrdU+/CD144+ EC population (CD144+ ECs; 36 hrs): 2.7 fold | increase of population of CD144+ ECs in S phase compared to control (CD144+ ECs; 36 hrs): 1.23 fold | reduction of CD144+ ECs in G0/G1 phase compared to control (CD144+ ECs; 36 hrs): 12% | area of self-beating CMs (Flk1+ MPCs [2]; Y27632 10 μM plus CsA 2 μg/mL): strikingly increased | increase of cTnT+ CMs compared to control CsA only (Flk1+ MPCs [2]; Y27632 10 μM plus CsA 2 μg/mL, 6 days): ~1.9 fold | increase of area of cTnT+ CMs (Flk1+ MPCs [2]; [3]): ~2.3 fold | increase of area of αMHC GFP+ CMs (Flk1+ MPCs [2]; [3]): ~1.7 fold
